Results on 28 compounds are retold here after patent US8293781B2, “Indole derivatives having cPLA2 inhibiting activity and applications and production methods of the same” (Daiichi Sankyo Company, Limited, priority 2007, dated 2012).

Counter-ions that a name gives are not always drawn.

The first assay has as its target T1, cPLA2 crudely purified from the cytoplasm fraction of U937 (Homo sapiens, UniProt P47712).
T1 construct: cPLA2 crudely purified from the cytoplasm fraction of U937; endogenous in cells; host or cells: U937 cells (cytoplasm fraction, crude purification)
T1 sequence (P47712 1-749): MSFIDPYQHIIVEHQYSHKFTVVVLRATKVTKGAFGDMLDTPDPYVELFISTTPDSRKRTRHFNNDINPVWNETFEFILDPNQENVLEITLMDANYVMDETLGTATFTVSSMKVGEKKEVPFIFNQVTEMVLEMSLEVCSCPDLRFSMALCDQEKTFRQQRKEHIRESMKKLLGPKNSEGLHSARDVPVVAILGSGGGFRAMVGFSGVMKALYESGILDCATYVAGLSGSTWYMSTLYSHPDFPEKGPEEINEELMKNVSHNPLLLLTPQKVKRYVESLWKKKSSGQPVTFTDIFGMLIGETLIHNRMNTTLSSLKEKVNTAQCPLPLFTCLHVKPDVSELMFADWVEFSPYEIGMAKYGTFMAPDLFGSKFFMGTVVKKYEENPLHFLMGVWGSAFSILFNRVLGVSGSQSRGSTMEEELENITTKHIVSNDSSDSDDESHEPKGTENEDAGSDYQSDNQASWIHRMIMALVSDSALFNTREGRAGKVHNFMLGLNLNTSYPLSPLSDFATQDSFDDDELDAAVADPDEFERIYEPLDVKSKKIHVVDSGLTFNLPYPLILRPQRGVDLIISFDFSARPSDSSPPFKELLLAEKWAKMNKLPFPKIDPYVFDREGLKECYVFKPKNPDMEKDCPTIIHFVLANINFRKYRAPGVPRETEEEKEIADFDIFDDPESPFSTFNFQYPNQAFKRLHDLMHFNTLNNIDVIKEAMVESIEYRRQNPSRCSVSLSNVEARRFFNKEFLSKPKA
In words: Measurement of cPLA2 inhibitory activity (release of [14C]-arachidonic acid from phosphatidyl choline liposome). The assay is classed as biochemical.
Conditions: not given
As for the experimental part:
The cPLA2 inhibitory activity was measured based on the method described in the document [See H. Naraba et al., J. Immunol. 160, 2974-2982 (1998)] and modified in the following way.
A DMSO solution of the present invitation compounds was diluted to 2.5 times the final concentration with the assay buffer (4 mM CaCl2, 2 mM dithiothreitol, 150 mM NaCl, 50 mM HEPES buffer solution (pH7.5)) containing 0.55 mg/ml BSA. To 20 μl of this, cPLA2 crudely purified from the cytoplasm fraction of U937 was added in an amount of 10 μl after dilution by an assay buffer solution containing 0.55 mg/ml BSA. A liposome prepared by ultrasonically treating L-α-1-palmitoyl-2-[14C]arachidonyl-phosphatidyl choline (made by PerkinElmer) and adjusted by the assay buffer solution to a concentration of phosphatidyl choline of 10 μM was added and stirred in by an amount of 20 μl and the mixture was reacted at 37° C. for 60 minutes. The [^14C]-arachidonic acid released due to the reaction was extracted based on the method described in the documents [see V. P. Dole et al., J. Biol. Chem. 235, 2595 (1960)], was added to Lumaplate® (made by PerkinElmer), dried, then measured by Topcount® (made by PerkinElmer). Except for not adding the present invention compounds, the same procedure was performed as the above to obtain the enzyme control. Except for not adding the invention compounds and not adding the enzyme, the same procedure was followed as above to obtain a negative control. The inhibiting activity was expressed as a percent (%) of the value minus the negative control with respect to the value of the enzyme control minus the negative control. From this, the 50% inhibiting concentration (IC50, μM) was calculated.
`Cc1c(C(=O)Cc2ccccc2)c2cc(CCC(=O)O)ccc2n1-c1ccccc1` [Example 45, 3-[2-methyl-1-phenyl-3-(phenylacetyl)-1H-indol-5-yl]propanoic acid]: the IC50 came to 225 nM. On the same count and under the same terms, the value for `O=C(O)CCc1ccc2c(c1)c(Cc1cccc3ccccc13)cn2-c1ccccc1` [Example 51, 3-[3-(1-naphthylmethyl)-1-phenyl-1H-indol-5-yl]propanoic acid] was 704 nM; that for `COc1ccc(CC(=O)c2cn(-c3ccccc3)c3ccc(CCC(=O)O)cc23)cc1` [Example 65, 3-{3-[(4-methoxyphenyl)acetyl]-1-phenyl-1H-indol-5-yl}propanoic acid] was 1910 nM; that for `Cc1c(C(=O)Cc2ccccc2)c2cc(/C=C/C(=O)O)ccc2n1-c1ccccc1` [Example 44, (2E)-3-[2-methyl-1-phenyl-3-(phenylacetyl)-1H-indol-5-yl]-2-propenoic acid] was 421 nM.

The same assay, now with this note: cPLA2 from U937 cytoplasm fraction, [14C]arachidonyl-phosphatidyl choline liposome, 37° C., 60 minutes; read-out: cPLA2 inhibitory activity, 50% inhibiting concentration IC50.
`CCC(Cc1cn(-c2ccccc2)c2ccc(CCC(=O)O)cc12)c1ccccc1` (stereo not shown) [Example 37, 3-[1-phenyl-3-(2-phenylbutyl)-1H-indol-5-yl]propanoic acid 2-amino-2-(hydroxymethyl)propane-1,3-diol salt (1:1)]: the IC50 is 1450 nM. Still for that read-out and setting: for `Cc1ccc(-n2cc(CCc3ccccc3)c3cc(CCC(=O)O)ccc32)cc1C` [Example 101, 3-[1-(3,4-dimethylphenyl)-3-(2-phenylethyl)-1H-indol-5-yl]propanoic acid 2-amino-2-(hydroxymethyl)propane-1,3-diol salt (1:1)] the value was 96 nM; for `Nc1ccc(-n2cc(CCc3ccccc3)c3cc(CCC(=O)O)ccc32)nc1` [Example 135, 3-[1-(5-amino-2-pyridinyl)-3-(2-phenylethyl)-1H-indol-5-yl]propanoic acid], 277 nM.

As for `O=C(O)CCc1ccc2c(c1)c(CCc1ccccc1)cn2-c1cccc(C(=O)N2CCOCC2)c1` [Example 316, 3-{1-[3-(morpholin-4-ylcarbonyl)phenyl]-3-(2-phenylethyl)-1H-indol-5-yl}propanoic acid], the IC50 was > 3000 nM. On the same count and under the same terms, for `O=C(O)CCc1ccc2c(c1)c(CCc1ccccc1)cn2-c1cccc(S(=O)(=O)N2CCOCC2)c1` [Example 324, 3-{1-[3-(morpholin-4-ylsulfonyl)phenyl]-3-(2-phenylethyl)-1H-indol-5-yl}propanoic acid] the value was 1630 nM; for `O=C(O)CCc1ccc2c(c1)c(CCc1ccccn1)cn2-c1cc(F)c(O)c(F)c1` [Example 298, 3-[1-(3,5-difluoro-4-hydroxyphenyl)-3-(2-pyridin-2-ylethyl)-1H-indol-5-yl]propanoic acid hydrochloride], 923 nM; for `O=C(CCc1ccc2c(c1)c(CCc1ccccc1)cn2-c1ccccc1)C(F)(F)F` [Example 113, 1,1,1-trifluoro-4-[1-phenyl-3-(2-phenylethyl)-1H-indol-5-yl]butan-2-one], 1150 nM. With `CN(C)S(=O)(=O)c1ccc(-n2cc(CCc3ccccc3)c3cc(CCC(=O)O)ccc32)cc1` [Example 318, 3-[1-{4-[(dimethylamino)sulfonyl]phenyl}-3-(2-phenylethyl)-1H-indol-5-yl]propanoic acid], the IC50 worked out at 271 nM. With `O=C(O)CCc1ccc2c(c1)c(CCc1ccccc1)cn2-c1ccc(OCc2ccccn2)cc1` [Example 246, 3-{3-(2-phenylethyl)-1-[4-(pyridin-2-ylmethoxy)phenyl]-1H-indol-5-yl}propanoic acid hydrochloride], the IC50 came to 7 nM. For the compound `O=C(CCc1ccc2c(c1)c(CCc1ccccc1)cn2-c1ccc(O)cc1)NO` [Example 284, N-hydroxy-3-[1-(4-hydroxyphenyl)-3-(2-phenylethyl)-1H-indol-5-yl]propanamide], the IC50 is > 3000 nM. Same read-out and setting: the value for `CC(C)(C)C(=O)Nc1ccc(-n2cc(CCc3ccccc3)c3cc(CCC(=O)O)ccc32)cc1` [Example 93, 3-[1-{4-[(2,2-dimethylpropanoyl)amino]phenyl}-3-(2-phenylethyl)-1H-indol-5-yl]propanoic acid 2-amino-2-(hydroxymethyl)propane-1,3-diol salt (1:1)] was 112 nM; that for `O=C(O)CCc1ccc2c(c1)c(Cc1ccc3ccccc3c1)cn2-c1ccccc1` [Example 54, 3-[3-(2-naphthylmethyl)-1-phenyl-1H-indol-5-yl]propanoic acid] was 6120 nM.

As to `O=C(CCc1ccc2c(c1)c(CCc1ccccc1)cn2-c1ccc(OC(F)F)cc1)NS(=O)(=O)c1ccccc1` [Example 332, 3-{1-[4-(difluoromethoxy)phenyl]-3-(2-phenylethyl)-1H-indol-5-yl}-N-(phenylsulfonyl)propanamide], the IC50 was > 3000 nM. Still for that read-out and setting: the value for `O=C(O)CCc1ccc2c(c1)c(CCc1ccccc1)cn2-c1ccc(OC2CCOCC2)cc1` [Example 225, 3-{3-(2-phenylethyl)-1-[4-(tetrahydro-2H-pyran-4-yloxy)phenyl]-1H-indol-5-yl}propanoic acid] was 8 nM. Same read-out and setting: for `Cc1ccc(S(=O)(=O)NC(=O)CCc2ccc3c(c2)c(CCc2ccccc2)cn3-c2ccc(Oc3ccccc3)cc2)cc1` [Example 333] the value was > 3000 nM; for `Cc1ccc(-n2cc(CCc3ccccc3)c3cc(CCC(=O)O)ccc32)cc1` [Example 95, 3-[1-(4-methylphenyl)-3-(2-phenylethyl)-1H-indol-5-yl]propanoic acid 2-amino-2-(hydroxymethyl)propane-1,3-diol salt (1:1)], 77 nM; for `CC(C)Oc1cccc(-n2cc(CCc3ccccc3)c3cc(CCC(=O)O)ccc32)c1` [Example 163, 3-[1-(3-isopropoxyphenyl)-3-(2-phenylethyl)-1H-indol-5-yl]propanoic acid], 1750 nM. On the same count and under the same terms, the value for `CCC(C(=O)c1cn(-c2ccccc2)c2ccc(/C=C/C(=O)O)cc12)c1ccccc1` (stereo not shown) [Example 35, (2E)-3-[1-phenyl-3-(2-phenylbutanoyl)-1H-indol-5-yl]-2-propenoic acid] was 5810 nM; that for `O=C(O)CCc1ccc2c(c1)c(CCc1ccccc1)cn2-c1ccc(SCc2ccccc2)cc1` [Example 335, 3-[1-(4-benzylthiophenyl)-3-(2-phenylethyl)-1H-indol-5-yl]propanoic acid] was 9 nM. Regarding `O=C(CCc1ccc2c(c1)c(CCc1ccccc1)cn2-c1ccc(Oc2ccccc2)cc1)C(F)(F)F` [Example 330, 1,1,1-trifluoro-4-[1-(4-phenoxyphenyl)-3-(2-phenylethyl)-1H-indol-5-yl]butan-2-one], the IC50 was 726 nM. On the same count and under the same terms, the value for `O=C(CCc1ccc2c(c1)c(CCc1ccccc1)cn2-c1ccc(OC(F)F)cc1)NO` [Example 286, 3-{1-[4-(difluoromethoxy)phenyl]-3-(2-phenylethyl)-1H-indol-5-yl}-N-hydroxypropanamide] was > 3000 nM; that for `c1ccc(CCc2cn(-c3ccccc3)c3ccc(CCc4nnn[nH]4)cc23)cc1` [Example 24, 1-phenyl-3-(2-phenylethyl)-5-[2-(1H-tetrazol-5-yl)ethyl]-1H-indole] was 12800 nM.

With `Cc1ccccc1-n1cc(CCc2ccccc2)c2cc(CCC(=O)O)ccc21` [Example 99, 3-[1-(2-methylphenyl)-3-(2-phenylethyl)-1H-indol-5-yl]propanoic acid 2-amino-2-(hydroxymethyl)propane-1,3-diol salt (1:1)], the IC50 turned out to be 288 nM. Still for that read-out and setting: for `O=C(O)CCc1ccc2c(c1)c(CCc1ccc(Cl)cc1)cn2-c1ccccc1` [Example 58, 3-{3-[2-(4-chlorophenyl)ethyl]-1-phenyl-1H-indol-5-yl}propanoic acid 2-amino-2-(hydroxymethyl)propane-1,3-diol salt (1:1)] the value was 1160 nM.
